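Dose response: 5 concentrations. Exposure: 48 h. Format: 96-well plates. Endpoint: linear interpolation; highest concentration if not reached. TGI: concentration producing complete growth inhibition.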 *1 amine or outer side, *2 acyl side, *3 side chain or, on linkers, in order; H or OH if unused. Where a SMILES comes first, the peptide text is derived from it. [ ]: non-standard residue; d: D form. X32 = C[C@H](N[*:1])C(=O)C(C)(C)C(=O)[*:2]; Hmpa(2S,3S) = CC[C@H](C)[C@H](O)C(=O)O; NMeY = CN[C@@H](Cc1ccc(O)cc1)C(=O)O; NMeL = CN[C@@H](CC(C)C)C(=O)O; NMeV = CN[C@H](C(=O)O)C(C)C; βAla = NCCC(=O)O
Tests used:
Test in all cases: DTP human tumour cell line panel, 48 h
[1] = tested on: 786-0 renal
[2] = tested on: BT-549 breast
[3] = tested on: HCC-2998 colon
[4] = tested on: HOP-62 NSCLC
[5] = tested on: K-562 leukemia
[6] = tested on: MDA-MB-231 breast
[7] = tested on: NCI-H460 lung
[8] = tested on: SF-268 CNS
[9] = tested on: SK-MEL-2 melanoma
[10] = tested on: SK-OV-3 ovarian
[11] = tested on: U251 CNS

In the case of `C=CCc1cccc2cc(C(=O)Nc3ccccn3)c(=N)oc12`, the TGI [1] was over 100 µM, the TGI [2] was over 100 µM and the TGI [3] was over 100 µM. It also gave a TGI [4] of over 100 µM, a TGI [5] of over 100 µM and a TGI [6] of over 100 µM. The TGI [7] was over 100 µM, the TGI [8] was over 100 µM and the TGI [9] was over 100 µM. The TGI [10] was over 100 µM and the TGI [11] was over 100 µM.

`O=C1C(c2c(O)[nH]c3ccc(Br)cc23)=Nc2ccccc21` gave a TGI [1] of 5.75 µM, a TGI [2] of 41 µM and a TGI [3] of 13.5 µM. For the same molecule, the TGI [4] was 32.6 µM, the TGI [5] was over 100 µM and the TGI [6] was 37.2 µM. The TGI [7] was 44.6 µM, the TGI [8] was 24.4 µM and the TGI [9] was 28.3 µM. It also gave a TGI [10] of 40.9 µM and a TGI [11] of 26.2 µM.

`CC1=C(C(=O)Nc2ccccc2)C2(CCCCC2)C(C#N)=C(SCC(=O)Nc2ccc(Br)cc2)N1` was tested, and the TGI [1] was 13.3 µM, the TGI [2] was 33.4 µM and the TGI [3] was 10.4 µM. The TGI [4] was 32.6 µM, the TGI [5] was 23 µM and the TGI [6] was 27.1 µM. The TGI [7] was 11.4 µM, the TGI [8] was 8.74 µM and the TGI [9] was 6.6 µM. It also gave a TGI [10] of 44.5 µM and a TGI [11] of 15.3 µM.

`Cc1ccc(NC(=O)c2cc(S(=O)(=O)Nc3nc4ncccc4[nH]3)c(SSc3cc(Cl)c(C(=O)Nc4ccc(C)cc4)cc3S(=O)(=O)Nc3nc4ncccc4[nH]3)cc2Cl)cc1` showed a TGI [1] of over 100 µM, a TGI [2] of over 100 µM and a TGI [3] of over 100 µM. It also gave a TGI [4] of over 100 µM, a TGI [5] of over 100 µM and a TGI [6] of over 100 µM. The TGI [7] was over 100 µM, the TGI [8] was over 100 µM and the TGI [9] was over 100 µM. The TGI [10] was over 100 µM and the TGI [11] was over 100 µM.

`CC(=O)Nc1ccc(C2SCc3nc4ccccc4n32)cc1` (stereo not given) gave a TGI [1] of over 100 µM, a TGI [2] of over 74.6 µM and a TGI [3] of over 100 µM. The TGI [4] was over 100 µM, the TGI [5] was over 100 µM and the TGI [6] was over 100 µM. For the same molecule, the TGI [7] was over 100 µM, the TGI [8] was over 100 µM and the TGI [9] was over 100 µM. The TGI [10] was over 100 µM and the TGI [11] was over 100 µM.

`Cc1ccccc1S(=O)(=O)Nn1cnc2ccc(S(=O)(=O)Nc3ccc(Cl)cc3)cc2c1=O` gave a TGI [1] of over 100 µM, a TGI [2] of over 100 µM and a TGI [3] of over 100 µM. The TGI [4] was over 100 µM, the TGI [5] was over 100 µM and the TGI [6] was over 100 µM. For the same molecule, the TGI [7] was over 100 µM, the TGI [8] was over 100 µM and the TGI [9] was over 100 µM. The TGI [10] was over 100 µM and the TGI [11] was over 100 µM.

Work on `CC(=O)O[C@H]1[C@H](OC(=O)CC(C)(O)CC(=O)O)C[C@]2(C)C3=C(CCC2C1(C)C)[C@]1(C)CC[C@H]([C@H]2CC[C@H](C(C)(C)O)OC2O)[C@@]1(C)[C@@H](O)C3` (stereo not given in full) yielded a TGI [1] of 37.3 µM, a TGI [2] of 29 µM and a TGI [3] of 31.7 µM. For the same molecule, the TGI [4] was 32.7 µM, the TGI [5] was 76.5 µM and the TGI [6] was 32.4 µM. It also gave a TGI [7] of 28.6 µM, a TGI [9] of 37.1 µM and a TGI [10] of 30.6 µM. For the same molecule, the TGI [11] was 35.5 µM.

Work on `N#Cc1ccc(-n2c3ccccc3c3ccc4c(c32)C(=O)C=CC4=O)cc1` yielded a TGI [1] of 3.16 µM, a TGI [2] of 25.3 µM and a TGI [3] of 18.3 µM. For the same molecule, the TGI [4] was 30.8 µM, the TGI [5] was over 100 µM and the TGI [6] was 8.25 µM. The TGI [7] was 44.2 µM, the TGI [8] was 9.12 µM and the TGI [9] was 28.9 µM. The TGI [10] was 27.3 µM and the TGI [11] was 17.8 µM.

`CC[C@H](C)[C@@H]1OC(=O)CCNC(=O)[C@@H](C)NC(=O)C(C)(C)C(=O)[C@H](C)NC(=O)[C@H](Cc2ccc(OC)cc2)N(C)C(=O)[C@H](C(C)C)N(C)C(=O)CNC(=O)[C@H](CC(C)C)N(C)C(=O)CNC1=O` (cyclo(G[NMeL]G[NMeV][NMeY](Me)[X32][dA][βAla][Hmpa(2S,3S)])) gave a TGI [1] of 12.7 µM, a TGI [2] of 13.6 µM and a TGI [3] of over 25.1 µM. It also gave a TGI [4] of 10.6 µM, a TGI [5] of over 24.5 µM and a TGI [6] of 11.2 µM. For the same molecule, the TGI [7] was over 50 µM, the TGI [8] was 6.54 µM and the TGI [9] was 6.48 µM. The TGI [10] was 4.11 µM and the TGI [11] was 2.62 µM.

Work on `CC(=O)Nc1c(C)cc2c(nc3n2CCC3O)c1[N+](=O)[O-]` (stereo not given) yielded a TGI [1] of over 100 µM, a TGI [2] of over 100 µM and a TGI [3] of over 100 µM. The TGI [5] was over 100 µM, the TGI [6] was over 100 µM and the TGI [7] was over 100 µM. For the same molecule, the TGI [8] was over 100 µM, the TGI [9] was over 100 µM and the TGI [10] was over 100 µM. The TGI [11] was over 100 µM.

`C[C@@H]1CC[C@@H]2[C@@H](C1)O[C@@H]([C@H](C)OCc1ccccc1)SC2(C)C` was tested, and the TGI [1] was 62.1 µM, the TGI [2] was over 100 µM and the TGI [3] was 31.8 µM. It also gave a TGI [4] of over 100 µM, a TGI [5] of 39.5 µM and a TGI [6] of 40.1 µM. For the same molecule, the TGI [7] was 53.5 µM, the TGI [8] was over 100 µM and the TGI [9] was 33 µM. For the same molecule, the TGI [10] was over 100 µM and the TGI [11] was 33.5 µM.

`OCCNCNc1nc(NCNCCO)nc(N(CNCCO)CNCCO)n1` gave a TGI [1] of 36.5 µM, a TGI [2] of 46 µM and a TGI [3] of 36.4 µM. For the same molecule, the TGI [4] was 43.2 µM, the TGI [5] was 50.3 µM and the TGI [6] was 52.7 µM. For the same molecule, the TGI [7] was 59.4 µM, the TGI [8] was 60.8 µM and the TGI [9] was 40.9 µM. For the same molecule, the TGI [10] was over 85.9 µM and the TGI [11] was 43.7 µM.

Work on `CCC(C#N)NCc1cccc(CNC(C#N)CC)c1` (stereo not given) yielded a TGI [1] of over 100 µM, a TGI [2] of over 100 µM and a TGI [3] of over 100 µM. For the same molecule, the TGI [5] was over 100 µM, the TGI [6] was over 100 µM and the TGI [7] was over 100 µM. The TGI [8] was over 100 µM, the TGI [9] was over 100 µM and the TGI [10] was 32.3 µM. The TGI [11] was over 100 µM.

— PubChem BioAssay (NCI)
